# Assay results published in PubChem BioAssay AID2060894 (Molecular Pharmacology Branch, DTP, NCI, 2025).
# Tested on: K12877-001-R-J1-PDC complex spheroid viability
# Test: Anticancer human tumor K12877-001-R-J1-PDC patient-derived lung adenocarcinoma cell line growth inhibition [RAS]
# Conditions: for IC50: curve of first compound; for viability, T/C: stronger effect = lower value
# In short: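 Agents were tested in combination matrices in half-log decrements from a top concentration at or near clinical Cmax (10 microM if undetermined). Targets were multi-cell spheroids of tumour lines plus HUVEC and MSC stromal cells.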
# [1] = second compound 0.000949 µM, first compound 0.0316 µM
# [2] = second compound 0.000949 µM, first compound 0.1 µM
# [3] = second compound 0.000949 µM, first compound 0.316 µM
# [4] = second compound 0.000949 µM, first compound 1 µM
# [5] = second compound 0.000949 µM, first compound 3.16 µM
# [6] = second compound 0.000949 µM, first compound 10 µM
# [7] = second compound 0.003 µM, first compound 0.0316 µM
# [8] = second compound 0.003 µM, first compound 0.1 µM
# [9] = second compound 0.003 µM, first compound 0.316 µM
# [10] = second compound 0.003 µM, first compound 1 µM
# [11] = second compound 0.003 µM, first compound 3.16 µM
# [12] = second compound 0.003 µM, first compound 10 µM
# [13] = second compound 0.00949 µM, first compound 0.0316 µM
# [14] = second compound 0.00949 µM, first compound 0.1 µM
# [15] = second compound 0.00949 µM, first compound 0.316 µM
# [16] = second compound 0.00949 µM, first compound 1 µM
# [17] = second compound 0.00949 µM, first compound 3.16 µM
# [18] = second compound 0.00949 µM, first compound 10 µM
# [19] = second compound 0.03 µM, first compound 0.0316 µM
# [20] = second compound 0.03 µM, first compound 0.1 µM
# [21] = second compound 0.03 µM, first compound 0.316 µM
# [22] = second compound 0.03 µM, first compound 1 µM
# [23] = second compound 0.03 µM, first compound 3.16 µM
# [24] = second compound 0.03 µM, first compound 10 µM
# [25] = second compound 0.0949 µM, first compound 0.0316 µM
# [26] = second compound 0.0949 µM, first compound 0.1 µM
# [27] = second compound 0.0949 µM, first compound 0.316 µM
# [28] = second compound 0.0949 µM, first compound 1 µM
# [29] = second compound 0.0949 µM, first compound 3.16 µM
# [30] = second compound 0.0949 µM, first compound 10 µM
# [31] = second compound 0.3 µM, first compound 0.0316 µM
# [32] = second compound 0.3 µM, first compound 0.1 µM
# [33] = second compound 0.3 µM, first compound 0.316 µM
# [34] = second compound 0.3 µM, first compound 1 µM
# [35] = second compound 0.3 µM, first compound 3.16 µM
# [36] = second compound 0.3 µM, first compound 10 µM
# 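Also: spheroids exposed to agents for one week before readout.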
# 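For viability, T/C in this document: tumour cells co-cultured with HUVEC and mesenchymal stem cells in spheroids.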
compound,measurement,setting,value
NC1c2ccccc2OC12CCN(c1cnc3c(N4CCCc5ncccc54)n[nH]c3n1)CC2 (centres undefined) + CCn1c(-c2cccnc2C(C)OC)c2c3cc(ccc31)N1CCOC(CC(NC(=O)C(C(C)C)N(C)C(=O)C3(F)CCN(C(=O)C#CC(C)(C)N(C)C)CC3)C(=O)N3CCCC(N3)C(=O)OCC(C)(C)C2)C1,IC50,second compound 0.000949 µM,580 nM
same,IC50,second compound 0.003 µM,509 nM
same,IC50,second compound 0.00949 µM,225 nM
same,IC50,second compound 0.03 µM,145 nM
same,IC50,second compound 0.0949 µM,136 nM
same,IC50,second compound 0.3 µM,67.7 nM
same,"viability, T/C",[1],69%
same,"viability, T/C",[2],67.8%
same,"viability, T/C",[3],56%
same,"viability, T/C",[4],43.8%
same,"viability, T/C",[5],38.5%
same,"viability, T/C",[6],34%
same,"viability, T/C",[7],65.8%
same,"viability, T/C",[8],62.2%
same,"viability, T/C",[9],52.5%
same,"viability, T/C",[10],45.4%
same,"viability, T/C",[11],37%
same,"viability, T/C",[12],30%
same,"viability, T/C",[13],76.9%
same,"viability, T/C",[14],54.1%
same,"viability, T/C",[15],49.5%
same,"viability, T/C",[16],38.5%
same,"viability, T/C",[17],37.6%
same,"viability, T/C",[18],28.9%
same,"viability, T/C",[19],65.9%
same,"viability, T/C",[20],50.9%
same,"viability, T/C",[21],44.9%
same,"viability, T/C",[22],39.3%
same,"viability, T/C",[23],34.5%
same,"viability, T/C",[24],30.8%
same,"viability, T/C",[25],62.4%
same,"viability, T/C",[26],52.1%
same,"viability, T/C",[27],41.8%
same,"viability, T/C",[28],38.3%
same,"viability, T/C",[29],39.1%
same,"viability, T/C",[30],27.4%
same,"viability, T/C",[31],58.3%
same,"viability, T/C",[32],46.9%
same,"viability, T/C",[33],35%
same,"viability, T/C",[34],29.1%
same,"viability, T/C",[35],29.8%
same,"viability, T/C",[36],22.8%
CC1(O)CCCC1n1c(=O)c(C(F)F)cc2cnc(NC3CCN(S(C)(=O)=O)CC3)nc21 (centres undefined) + CCn1c(-c2cccnc2C(C)OC)c2c3cc(ccc31)N1CCOC(CC(NC(=O)C(C(C)C)N(C)C(=O)C3(F)CCN(C(=O)C#CC(C)(C)N(C)C)CC3)C(=O)N3CCCC(N3)C(=O)OCC(C)(C)C2)C1,IC50,second compound 0.000949 µM,202 nM
same,IC50,second compound 0.003 µM,126 nM
same,IC50,second compound 0.00949 µM,134 nM
same,IC50,second compound 0.03 µM,107 nM
same,IC50,second compound 0.0949 µM,80.8 nM
same,IC50,second compound 0.3 µM,97.9 nM
same,"viability, T/C",[1],89.8%
same,"viability, T/C",[2],61.3%
same,"viability, T/C",[3],31.9%
same,"viability, T/C",[4],38.7%
same,"viability, T/C",[5],23.8%
same,"viability, T/C",[6],2.35%
same,"viability, T/C",[7],76%
same,"viability, T/C",[8],46.7%
same,"viability, T/C",[9],31.2%
same,"viability, T/C",[10],34.5%
same,"viability, T/C",[11],21.3%
same,"viability, T/C",[12],2.96%
same,"viability, T/C",[13],71.9%
same,"viability, T/C",[14],43.5%
same,"viability, T/C",[15],33.3%
same,"viability, T/C",[16],36.8%
same,"viability, T/C",[17],33.7%
same,"viability, T/C",[18],2.22%
same,"viability, T/C",[19],66.2%
same,"viability, T/C",[20],45.8%
same,"viability, T/C",[21],32.1%
same,"viability, T/C",[22],34.5%
same,"viability, T/C",[23],27.8%
same,"viability, T/C",[24],2.85%
same,"viability, T/C",[25],55.7%
same,"viability, T/C",[26],56.5%
same,"viability, T/C",[27],27.5%
same,"viability, T/C",[28],27.9%
same,"viability, T/C",[29],33.9%
same,"viability, T/C",[30],2.46%
same,"viability, T/C",[31],68.5%
same,"viability, T/C",[32],51.2%
same,"viability, T/C",[33],27.1%
same,"viability, T/C",[34],25.7%
same,"viability, T/C",[35],20.3%
same,"viability, T/C",[36],2.35%
